The target in data set [1] is T1, Sodium- and chloride-dependent glycine transporter 1 (Homo sapiens, UniProt P48067).
T1 sequence (P48067 whole entry): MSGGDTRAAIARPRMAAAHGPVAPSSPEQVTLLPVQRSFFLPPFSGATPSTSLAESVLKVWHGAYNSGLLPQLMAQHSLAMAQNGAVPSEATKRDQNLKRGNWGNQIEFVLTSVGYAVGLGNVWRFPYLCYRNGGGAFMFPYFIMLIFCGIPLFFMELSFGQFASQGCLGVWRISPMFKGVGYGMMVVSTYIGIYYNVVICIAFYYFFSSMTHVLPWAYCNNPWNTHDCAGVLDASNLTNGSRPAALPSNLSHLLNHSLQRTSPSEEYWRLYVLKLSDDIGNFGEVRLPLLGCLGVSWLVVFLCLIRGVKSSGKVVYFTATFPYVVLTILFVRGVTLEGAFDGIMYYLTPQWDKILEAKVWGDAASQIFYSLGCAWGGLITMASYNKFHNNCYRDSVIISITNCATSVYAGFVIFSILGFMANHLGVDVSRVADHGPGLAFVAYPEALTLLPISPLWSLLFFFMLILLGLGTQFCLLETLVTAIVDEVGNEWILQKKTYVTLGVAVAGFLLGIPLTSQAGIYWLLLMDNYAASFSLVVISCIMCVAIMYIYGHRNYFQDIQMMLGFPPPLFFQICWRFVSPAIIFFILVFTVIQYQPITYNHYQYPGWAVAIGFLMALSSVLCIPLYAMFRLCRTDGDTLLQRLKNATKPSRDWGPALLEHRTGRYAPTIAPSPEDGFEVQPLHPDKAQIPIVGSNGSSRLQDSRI
Description: (§1) Inhibition of [3H]glycine uptake in human GlyT1c expressed in HEK293 cells

The nature of data set [2]: Oral bioavailability in rat at 5 mg/kg. The format is ADME, organism-based. The note with it: in vivo.
Data set [3] deals with Rattus norvegicus. The experiment in a line: AUC (0 to infinity) in rat plasma at 1 mg/kg, iv. The format is ADME, organism-based. Also on record: time infinity, dose 1 mg/kg, route intravenous. The note with it: in vivo.
The nature of data set [4]: Half life in rat at 1 mg/kg, iv. The format is ADME, organism-based. Further details: dose 1 mg/kg, route intravenous. The note with it: in vivo.
Data set [5] can be described thus: Half life in rat at 5 mg/kg, sc. In kind it is ADME, organism-based. Further details: dose 5 mg/kg, route subcutaneous. The following applies: in vivo.
Data set [6] is described as follows: AUC (0 to infinity) in rat brain at 1 mg/kg, iv. In kind it is ADME, organism-based. Also on record: time infinity, dose 1 mg/kg, route intravenous.
Data set [7] concerns Rattus norvegicus. As to the kind of experiment: AUC (0 to infinity) in rat at 5 mg/kg, sc. The format is ADME, organism-based, Plasma. Also on record: time infinity, dose 5 mg/kg, route subcutaneous. The note with it: in vivo.
In data set [8] the test system is Liver microsomes. As to the kind of experiment: Intrinsic clearance in rat liver microsome. In kind it is ADME.
Another data set deals with Brain. As to the kind of experiment: Drug level in rat brain at 5 mg/kg, sc. The following applies: in vivo. The format is ADME, organism-based. Also on record: dose 5 mg/kg, route subcutaneous.
The nature of data set [9]: Plasma clearance in rat at 1 mg/kg, iv. The format is ADME, organism-based. Also on record: dose 1 mg/kg, route intravenous.
The subject of data set [10] is Liver microsomes. The experiment in a line: Intrinsic clearance in human liver microsome. In kind it is ADME. (Liver microsomes are vesicles of endoplasmic reticulum, rich in cytochrome P450 enzymes.)
Data set [11] has as its system Rattus norvegicus. The experiment in a line: Bioavailability in rat at 5 mg/kg, sc. In kind it is ADME, organism-based. The following applies: in vivo.
Data set [12] is described as follows: Cmax in rat at 5 mg/kg, sc. The format is ADME, organism-based. Further details: dose 5 mg/kg, route subcutaneous. The note with it: in vivo.
In the next data set the target is Cytochrome P450 2D6 (Homo sapiens, UniProt P10635). As to the kind of experiment: Binding affinity to CYP2D6. In kind it is ADME.
Chain of Cytochrome P450 2D6 (P10635 whole entry): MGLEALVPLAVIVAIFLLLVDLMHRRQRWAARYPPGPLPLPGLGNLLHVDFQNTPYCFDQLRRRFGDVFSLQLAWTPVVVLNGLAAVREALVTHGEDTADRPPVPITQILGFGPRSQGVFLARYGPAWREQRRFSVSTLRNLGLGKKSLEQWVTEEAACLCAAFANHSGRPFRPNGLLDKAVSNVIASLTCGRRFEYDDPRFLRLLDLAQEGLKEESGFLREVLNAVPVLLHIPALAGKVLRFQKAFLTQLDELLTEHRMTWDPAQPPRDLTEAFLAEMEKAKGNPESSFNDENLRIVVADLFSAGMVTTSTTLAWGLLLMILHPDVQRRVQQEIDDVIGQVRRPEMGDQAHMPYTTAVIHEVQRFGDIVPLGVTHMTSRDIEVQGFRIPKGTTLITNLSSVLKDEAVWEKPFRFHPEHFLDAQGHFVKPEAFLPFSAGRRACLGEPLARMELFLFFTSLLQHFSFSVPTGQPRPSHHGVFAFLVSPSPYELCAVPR
Data set [13] has as its target T1, Sodium- and chloride-dependent glycine transporter 1. The note with it: hek293.
Description: as §1

In general, IC50 refers to the midpoint of a concentration-inhibition curve. Read a high IC50 as a need for much substance. Broadly, the bioavailability is dose-corrected exposure relative to a reference, in per cent. As usually defined, the AUC is the area under the concentration-time curve, a measure of exposure. A word on the half-life: it is the time in which the quantity being followed falls by half. A higher half-life goes with slow loss. What is called AUC(0-inf) is the area under the concentration-time curve extrapolated to infinity. A lower AUC(0-inf) goes with low exposure. What is called Cmax is the highest concentration seen after dosing.

The structures appear in SMILES notation.

In [1], `CC1CCCN1C[C@@H](O)CNS(=O)(=O)c1cccc2ccccc12` (stereo partly drawn) had an IC50 of 1000 nM.

Turning to `CC(C)C1CCCCN1C[C@@H](O)CNS(=O)(=O)c1cccc2ccccc12` (stereo in doubt), the concentration for half-maximal inhibition (IC50) in data set [1] was 631 nM.

In data set [1], `CC(C)CC1CCCN1C[C@@H](O)CNS(=O)(=O)c1cccc2ccccc12` (single isomer, unassigned; isomer A) showed a half-maximal inhibitory concentration (IC50) of 6310 nM.

In turn, `CC(C)CC1CCCN1C[C@@H](O)CNS(=O)(=O)c1cccc2ccccc12` (single isomer, unassigned; isomer B) gave an IC50 in data set [1] of 2510 nM.

With `CC1CCCN1C[C@H](O)CNS(=O)(=O)c1cccc2ccccc12` (stereo partly drawn), the IC50 in data set [1] is 12600 nM.

On to `CCC1CCCN1C[C@@H](O)CNS(=O)(=O)c1cccc2ccccc12` (single isomer, unassigned; isomer A), for which the 50% inhibitory concentration (IC50) in [1] was 1260 nM.

`CCc1cc(Br)ccc1S(=O)(=O)NC[C@H](O)CN1CC(C)CC1C` (stereo partly drawn) gave a half-maximal inhibitory concentration (IC50) in data set [1] of 3160 nM.

As to `CCC1CCCN1C[C@@H](O)CNS(=O)(=O)c1cccc2ccccc12` (single isomer, unassigned; isomer B), 1580 nM corresponded to half-maximal inhibition in data set [1] (IC50).

Compound `CC1CCC(C)N1C[C@@H](O)CNS(=O)(=O)c1cccc2ccccc12` (stereo partly drawn) had an IC50 in data set [1] of 794 nM.

Compound `CC(C)C1CCCN1C[C@@H](O)CNS(=O)(=O)c1cccc2ccccc12` (single isomer, unassigned; isomer B) had a half-maximal inhibitory concentration (IC50) in data set [1] of 200 nM.

As to `CC1CCC(C)N1C[C@H](O)CNS(=O)(=O)c1cccc2ccccc12` (stereo partly drawn), the midpoint of inhibition in data set [1], the IC50, lay at 7940 nM.

Consider `CC1CCCCN1C[C@@H](O)CNS(=O)(=O)c1cccc2ccccc12` (stereo partly drawn), for which the 50% inhibitory concentration (IC50) in data set [1] is 316 nM.

With `CC1CC(C)N(C[C@@H](O)CNS(=O)(=O)c2ccc3ccccc3c2)C1` (stereo partly drawn), in [1], 3980 nM corresponded to half-maximal inhibition (IC50).

`CC1CC(C)N(C[C@@H](O)CNS(=O)(=O)c2cccc(Cl)c2Cl)C1` (stereo partly drawn): the half-maximal inhibitory concentration (IC50) in data set [1] is 2510 nM.

For `O=S(=O)(NC[C@H](O)CN1CCCC1C1CCCCC1)c1cccc2ccccc12` (single isomer, unassigned; isomer B), in data set [1], the IC50 was 6310 nM.

Turning to `CCCN(C[C@@H](O)CNS(=O)(=O)c1cccc2ccccc12)C(C)CC` (stereo partly drawn), the half-maximal inhibitory concentration (IC50) in data set [1] is 1260 nM.

Compound `CC1CCCN(C[C@@H](O)CNS(=O)(=O)c2cccc3ccccc23)C1` (stereo partly drawn) had a 50% inhibitory concentration (IC50) in data set [1] of 3980 nM.

In turn, `CC(C)C1CCCN1C[C@@H](O)CNS(=O)(=O)c1cccc2ccccc12` (single isomer, unassigned; isomer A) showed a half-maximal inhibitory concentration (IC50) in data set [1] of 1000 nM.

Turning to `O=S(=O)(NC[C@H](O)CN1CCCC1C1CC1)c1cccc2ccccc12` (single isomer, unassigned; isomer B), in [1], the concentration for half-maximal inhibition (IC50) is 501 nM.

On to `CC[C@H]1CCCCN1C[C@@H](O)CNS(=O)(=O)c1cccc2ccccc12`, for which, in data set [2], the bioavailability was found to be 4%. The AUC came out at 952 ng·h/mL with Rattus norvegicus [3] and 1731 ng·h/mL in the data set on Rattus norvegicus [7]. For the same compound, the half-life in data set [4] was 60 min; in data set [5], 54 min. The AUC(0-inf) in data set [6] was 587 ng·h/mL. The clearance in the data set with Liver microsomes [8] was determined as 8 mL/min/g; in data set [9], 18 mL/min/kg; in the data set with Liver microsomes [10], 8 mL/min/g. The same compound yielded a Drug uptake in the data set with Brain of 564 ng/mL. In the data set on Rattus norvegicus [11], this compound displayed an F of 95%. In data set [12], this compound registered a Cmax of 564 ng/mL. For the same compound, the Activity on Cytochrome P450 2D6 amounted to 1.2 µM.

Consider `CC(C)C1CCCCN1C[C@@H](O)CNS(=O)(=O)c1cccc2ccccc12` (single isomer, unassigned; isomer A), for which the IC50 in data set [1] is 3980 nM.

For the compound `O=S(=O)(NC[C@H](O)CN1CCCC1)c1cccc2ccccc12`, the IC50 in [1] was 3160 nM.

As to `CC(C)(C)C1CCCN1C[C@@H](O)CNS(=O)(=O)c1cccc2ccccc12` (single isomer, unassigned; isomer A), half-maximal inhibition in [1] (IC50) was put at 7940 nM.

Compound `CCCN(C[C@@H](O)CNS(=O)(=O)c1cccc2ccccc12)C(C)(C)C` gave an IC50 in [1] of 1000 nM.

In the case of `O=S(=O)(NC[C@H](O)CN1CCCC1C1CCCCC1)c1cccc2ccccc12` (single isomer, unassigned; isomer A), in [13], the “Log IC50” value is on record as -5.2.

Regarding `O=S(=O)(NC[C@H](O)CN1CCCC1C1CC1)c1cccc2ccccc12` (stereo in doubt), the half-inhibitory concentration (IC50) in data set [1] is 1580 nM.

Consider `CC(C)(C)C1CCCN1C[C@@H](O)CNS(=O)(=O)c1cccc2ccccc12` (single isomer, unassigned; isomer B), for which the IC50 in [1] is 200 nM.

`CCC1CCC(C)N(C[C@@H](O)CNS(=O)(=O)c2cccc3ccccc23)C1` (stereo partly drawn) gave an IC50 in [1] of 1000 nM.

On to `CC1CC(C)N(C[C@@H](O)CNS(=O)(=O)c2cc(Cl)sc2Cl)C1` (stereo partly drawn), for which the midpoint of inhibition in data set [1], the IC50, lay at 3160 nM.

`O=S(=O)(NC[C@H](O)CN1CCCCC1)c1cccc2ccccc12`: in [1], the IC50 was 3160 nM.

Compound `Cc1cc(S(=O)(=O)NC[C@H](O)CN2CC(C)CC2C)c(C)cc1Cl` (stereo partly drawn) gave a concentration for half-maximal inhibition (IC50) in data set [1] of 3160 nM.

These data come from ChEMBL document CHEMBL1139093, “1,3-diaminopropan-2-ol sulfonamides as potent and selective inhibitors of the glycine transporter type 1” (Bioorg Med Chem Lett, 2007).
